Key:
HeLa cells [1] = assay: MTT cell viability assay, HeLa; type: cell-based; conditions: Homo sapiens, 72 h
Method: Cell viability was assessed by using 3-(4,5-dimethylthiazol-2-y1)-2,5-diphenyltetrazolium bromide (MTT) assay (Sigma-Aldrich, Milan, Italy), as already reported. In brief, MCF-7 and HeLa cells (2 × 10^4 cells/well) were seeded in a 48-well plate and grown in complete medium overnight, then they were switched into DMEM-F12 supplemented with 2% FBS and treated with increasing concentrations (1, 10, 50, 75, and 100 µM) of different oxazolidin-2-ones derivatives (OA-OI) or doxorubicin for 72 h. Untreated cells were added with the vehicle (DMSO) and used as a control. After treatment, fresh MTT reagent (used at a final concentration of 0.5 mg/mL) was added, prolonging incubation for 2 h according to the manufacturer’s protocol. Absorbance at 570 nm was measured in each well, including controls, and every experiment was carried out in triplicate.
(§1) For each sample, mean absorbance was expressed as a percentage of the control and plotted vs. drug concentration, in order to determine the IC50 value (i.e., drug concentration able to decrease cell viability by 50% with respect to the control) for each cell line, generating a sigmoidal dose–response curve by the use of GraphPad Prism 7 software (GraphPad Inc., San Diego, CA, USA). Mean values and standard deviations (SD) of three independent experiments carried out in triplicate were reported. […]

MCF-7 cells [2] = assay: MTT cell viability assay, MCF-7; type: cell-based; conditions: Homo sapiens, MCF7, 72 h
Method: Cell viability was assessed by using 3-(4,5-dimethylthiazol-2-y1)-2,5-diphenyltetrazolium bromide (MTT) assay (Sigma-Aldrich, Milan, Italy), as already reported. […] Untreated cells were added with the vehicle (DMSO) and used as a control. After treatment, fresh MTT reagent (used at a final concentration of 0.5 mg/mL) was added, prolonging incubation for 2 h according to the manufacturer’s protocol. Absorbance at 570 nm was measured in each well, including controls, and every experiment was carried out in triplicate.
as §1

MCF-10A cells [3] = assay: MTT cell viability assay, MCF-10A; type: cell-based, human; conditions: for IC50: Homo sapiens, MCF-10A, 72 h
MCF-7 cells [4] = assay: Cell cycle analysis (PI staining, flow cytometry), MCF-7; type: cell-based, human; conditions: MCF-7, 15 µM, 24 h
Method: (§2) In order to assess cell cycle analysis, MCF-7 and HeLa cells were seeded in 6-well plates, at a density of 2.5 × 10^5 cells/well, then they were added to DMSO or treated using 15 and 30 µM OI, respectively, for 24 h. MCF-10A were seeded as described before, then they were added to DMSO or treated using 30 µM OI, the highest concentration used for cancer cells, for 24 h. Next, cells were harvested by trypsinization, rinsed twice with cold PBS, and pelleted by centrifugation at 1500 rpm for 5 min. Pellets were re-suspended in 70% ice-cold ethanol for 30 min at 4 °C to perform cell fixation. Then, samples were rinsed twice with PBS and stained using a solution containing 3.8 mM sodium citrate (Sigma-Aldrich, Milan, Italy), 100 μg/mL RNAse (Sigma-Aldrich, Milan, Italy), 50 μg/mL propidium iodide (PI, Sigma-Aldrich, Milan, Italy), and 0.1% Igepal (Sigma-Aldrich, Milan, Italy) in PBS for 1 h at 37 °C. Subsequent cytofluorimetric analysis was achieved by BD FACSJazz™ Cell Sorter (Becton Dickinson, Franklin Lakes, NJ, USA).

HeLa cells [5] = assay: Cell cycle analysis (PI staining, flow cytometry), HeLa; type: cell-based, human; conditions: 30 µM, 24 h
Method: as §2

MCF-10A cells [6] = assay: Cell cycle analysis (PI staining, flow cytometry), MCF-10A; type: cell-based, human; conditions: 30 µM, 24 h
Method: as §2

MCF-7 cells [7] = assay: TUNEL assay, MCF-7; type: cell-based, human; conditions: MCF-7, 15 µM, 72 h; control 2.3%
Method: (§3) Apoptosis was tested by enzymatic labeling of DNA strand breaks using terminal deoxynucleotidyl transferase-mediated deoxyuridine triphosphate nick end-labeling (TUNEL) assay, following the guidelines of the manufacturer (TUNEL assay kit, Promega, Madison, WI, USA). Briefly, MCF-7 and HeLa cells were added with DMSO or treated with 15 and 30 µM OI, respectively, for 72 h. MCF-10A were added to DMSO or treated using 30 µM OI, for 72 h. Next, nuclear staining was achieved using 0.2 mg/mL 4′,6- diamidino-2-phenylindole (DAPI, Sigma-Aldrich, Milan, Italy) and samples were examined using a fluorescent microscope (Olympus BX4 equipped with CSV1.14 software employing a CAMXC-30 for image acquisition). Images were representative of three independent experiments.

HeLa cells [8] = assay: TUNEL assay, HeLa; type: cell-based, human; conditions: 30 µM, 72 h, control 10%
Method: as §3

MCF-10A cells [9] = assay: TUNEL assay, MCF-10A; type: cell-based, human; conditions: 30 µM, 72 h
Method: as §3

[10] = tested on: cyclin D1, CDK4, phosphorylated Rb in MCF-7 cells; assay: Western blot of cell cycle regulators, MCF-7; type: cell-based, human; conditions: MCF-7, 15 µM, 24 and 72 h
Method: (§4) Western blot analysis was conducted basically as previously reported. […] In order to obtain total cell lysates, harvested cells were lysed using 200 μL of lysis buffer as previously reported. Cytosolic and mitochondrial fractions were isolated as already described. Identical amounts of proteins from total lysate, mitochondrial, or cytosolic fraction were resolved on SDS-polyacrylamide gel, blotted to nitrocellulose membrane, and probed with proper primary antibodies (Santa Cruz Biotechnology, Dallas, TX, USA). Immunoreactive products were identified by using ECL Western blotting detection system (Bio-Rad Laboratories, Hercules, CA, USA).

[11] = tested on: procaspases -8 and -9 in MCF-7 cells; assay: Western blot of procaspases -8 and -9, MCF-7; type: cell-based, human; conditions: MCF-7, 15 µM, 24 and 72 h
Method: as §4

[12] = tested on: procaspases -8 and -9 in HeLa cells; assay: Western blot of procaspases -8 and -9, HeLa; type: cell-based, human; conditions: 30 µM, 24 and 72 h
Method: as §4

MCF-7 cells [13] = assay: Mitochondrial staining (MitoTracker Orange / Deep-Red, FACS), MCF-7; type: cell-based, human; conditions: MCF-7, 15 µM, 24 h
Method: (§5) Mitochondrial activity was assessed using MitoTracker Orange (Invitrogen, Milan, Italy), a fluorescent dye that enters mitochondria in a membrane potential-dependent way. Mitochondrial mass was determined using MitoTracker Deep-Red (Invitrogen, Milan, Italy), a far red-fluorescent dye that is largely used to label mitochondria. Both MCF-7 and HeLa cells were treated using 15 and 30 µM OI, respectively, for 24 h. Control cells were added with DMSO and simultaneously processed. Then, cells were incubated in the dark for 30–60 min at 37 °C with pre-warmed MitoTracker staining solution (diluted in PBS/CM to reach a final concentration of 10 nM). All the next steps were still carried out in the dark. Cells were rinsed in PBS, harvested, and re-suspended in 300 μL of PBS/CM. Cells were then examined by flow cytometry using Fortessa (BD Bioscience, San Jose, CA, USA). Data analysis was performed using FlowJo software (Tree Star Inc., Ashland, OR, USA).

HeLa cells [14] = assay: Mitochondrial staining (MitoTracker Orange / Deep-Red, FACS), HeLa; type: cell-based, human; conditions: 30 µM, 24 h
Method: as §5

[15] = tested on: cytochrome c in MCF-7 cells; assay: Western blot of cytochrome c in cytosolic and mitochondrial fractions, MCF-7; type: cell-based, human; conditions: MCF-7, 15 µM, 24 h, vs control
Method: (§6) Both MCF-7 and HeLa cells were cultured in 100 mm dishes (1 × 10^7 cells/dish), added with the vehicle alone (DMSO) or treated for 24 h with 15 and 30 µM OI, respectively. Then, mitochondria extraction was performed as previously described. In brief, cells were harvested, resuspended in isolation buffer for cells (IBC, containing 200 mM sucrose, 10 mM Tris/MOPS, 1 mM EDTA/Tris, pH 7.4), and homogenized by a glass potter homogenizer. Nuclei and unbroken cells were removed by centrifugation (600× g for 10 min). Supernatants were centrifuged for 30 min at 10,000× g, obtaining upper cytosolic fractions and mitochondrial pellets; the latter were resuspended in RIPA buffer (PBS pH 7.4, 1% NP-40, 0.5% sodium deoxycholate, and 0.1% sodium dodecyl sulfate) containing a protease and phosphatase inhibitor cocktail (Sigma-Aldrich, Milan, Italy). Protein concentration was determined using Bio-Rad Protein Assay (Bio-Rad Laboratories, Hercules, CA, USA) and Western blotting was performed as next described.
(§7) Western blot analysis was conducted basically as previously reported. In detail, MCF-7 and HeLa cells were grown to 70–80% confluence, added to DMSO, or treated with 15 and 30 µM OI, respectively, for 24 h. In order to obtain total cell lysates, harvested cells were lysed using 200 μL of lysis buffer as previously reported. Cytosolic and mitochondrial fractions were isolated as already described. […]

[16] = tested on: cytochrome c in HeLa cells; assay: Western blot of cytochrome c in cytosolic and mitochondrial fractions, HeLa; type: cell-based, human; conditions: 30 µM, 24 h, vs control
Method: as §6, §7

MCF-7 cells [17] = assay: ROS production (CM-H2DCFDA, FACS), MCF-7; type: cell-based, human; conditions: 24 h
Method: (§8) Intracellular level of reactive oxygen species (ROS) was assessed by using CM-H2DCFDA (Invitrogen, Milan, Italy), a cell-permeable fluorogenic probe, which is deacetylated by intracellular esterases and can be oxidized in the presence of intracellular ROS, becoming highly fluorescent. MCF-7 and HeLa cells were seeded into 96-well tissue culture plates at a density of 5 × 10^4 cells/well and treated with 15 and 30 µM OI, respectively, for 24 h. Control cells were added with DMSO and processed at the same time. Then, cells were washed with PBS and stained in the dark with CM-H2DCFDA (diluted in PBS/CM to a final concentration of 1 μM) for 20 min at 37 °C. Next steps were also performed in the dark, in order to avoid probe oxidation. Cells were washed three times with PBS, harvested, re-suspended in PBS/CM, and fluorescence was measured by using Fortessa (BD Bioscience, San Jose, CA, USA). ROS levels were estimated by using mean fluorescent intensity of the viable cell population. Results were analyzed by the use of FlowJo software (Tree Star Inc., Ashland, OR, USA).

HeLa cells [18] = assay: ROS production (CM-H2DCFDA, FACS), HeLa; type: cell-based, human; conditions: 24 h
Method: as §8

COc1cccc2c1C(=O)c1c(O)c3c(c(O)c1C2=O)C[C@@](O)(C(=O)CO)C[C@@H]3O[C@H]1C[C@H](N)[C@H](O)[C@H](C)O1 [DOX, doxorubicin, reference compound]
IC50 (HeLa cells [1]): 3.61 µM
IC50 (MCF-7 cells [2]): 4.04 µM
IC50 (MCF-10A cells [3]): 31.8 µM

CC1(C)/C(=C\C(=O)N2CCCCC2)OC(=O)N1Cc1ccccc1 [OA]
IC50 (HeLa cells [1]): 52.5 µM
IC50 (MCF-7 cells [2]): 56.9 µM
IC50 (MCF-10A cells [3]): 414 µM

CC1(C)/C(=C/C(=O)N2CCCCC2)OC(=O)N1Cc1ccccc1 [OB]
IC50 (HeLa cells [1]): 98.2 µM
IC50 (MCF-7 cells [2]): 122 µM
IC50 (MCF-10A cells [3]): 470 µM

CCN(CC)C(=O)/C=C1\OC(=O)N(Cc2ccccc2)C1(C)C [OC]
IC50 (HeLa cells [1]): 99.5 µM
IC50 (MCF-7 cells [2]): 163 µM
IC50 (MCF-10A cells [3]): 494 µM

CCCCN1C(=O)O/C(=C/C(=O)N2CCOCC2)C12CCCCC2 [OD]
IC50 (HeLa cells [1]): 154 µM
IC50 (MCF-7 cells [2]): 338 µM
IC50 (MCF-10A cells [3]): 506 µM

CCCCN1C(=O)O/C(=C\C(=O)N2CCOCC2)C12CCCCC2 [OE]
IC50 (HeLa cells [1]): 129 µM
IC50 (MCF-7 cells [2]): 304 µM
IC50 (MCF-10A cells [3]): 978 µM

CC1(C)/C(=C\C(=O)N2CCOCC2)OC(=O)N1Cc1ccccc1 [OF]
IC50 (HeLa cells [1]): 159 µM
IC50 (MCF-7 cells [2]): 409 µM
IC50 (MCF-10A cells [3]): 718 µM

CC1(C)/C(=C/C(=O)N2CCOCC2)OC(=O)N1Cc1ccccc1 [OG]
IC50 (HeLa cells [1]): 134 µM
IC50 (MCF-7 cells [2]): 345 µM
IC50 (MCF-10A cells [3]): 677 µM

CCCCN1C(=O)O/C(=C/C(=O)N2CCOCC2)C1(C)CC (stereo not drawn) [OH]
IC50 (HeLa cells [1]): 54.2 µM
IC50 (MCF-7 cells [2]): 92.9 µM
IC50 (MCF-10A cells [3]): 319 µM

CCN(CC)C(=O)/C=C1/OC(=O)N(Cc2ccccc2)C1(C)C [OI, (E)-2-(3-benzyl-4,4-dimethyl-2-oxooxazolidin-5-ylidene)-N,N-diethylacetamide]
IC50 (HeLa cells [1]): 31.1 µM
IC50 (MCF-7 cells [2]): 17.7 µM
IC50 (MCF-10A cells [3]): 351 µM
anti-proliferative effect / cytotoxicity on non-tumorigenic MCF-10A cells (MCF-10A cells [3]; up to 72 h): no significant anti-proliferative effect
increase of the percentage of cells in the G0/G1 phase (MCF-7 cells [4]): 15%
reduction of the fraction of cells in the S-phase (MCF-7 cells [4]): 30%
cells in the G1 phase (HeLa cells [5]): remarkable increase
cells in the S phase (HeLa cells [5]): considerable decrease
effect on the cell cycle (MCF-10A cells [6]): did not evidence any noticeable effect
apoptotic rate (TUNEL-positive cells) (MCF-7 cells [7]): 34.3%
apoptotic rate (TUNEL-positive cells) (HeLa cells [8]): 53.2%
effect in TUNEL assay (MCF-10A cells [9]): did not evidence any noticeable effect
CDK4 protein expression levels [10]: remained unaffected
cyclin D1 protein content ([10]; time dependent): significantly reduced
phosphorylated Rb protein content ([10]; time dependent): significantly reduced
expression level of activated caspase-8 [11]: unaffected
proteolytic cleavage of pro-caspase-9 into its active form [11]: time-dependently activated
expression level of activated caspase-8 [12]: unaffected
proteolytic cleavage of pro-caspase-9 into its active form [12]: time-dependently activated
mitochondrial mass (MitoTracker Deep-Red) (MCF-7 cells [13]): decrease
mitochondrial membrane potential (MitoTracker Orange) (MCF-7 cells [13]): decrease
mitochondrial membrane potential per mitochondria (ratio Orange vs. Deep-Red) (MCF-7 cells [13]): significantly decreased
mitochondrial mass (MitoTracker Deep-Red) (HeLa cells [14]): decrease
mitochondrial membrane potential (MitoTracker Orange) (HeLa cells [14]): decrease
mitochondrial membrane potential per mitochondria (ratio Orange vs. Deep-Red) (HeLa cells [14]): significantly decreased
cytochrome c levels in the cytosolic fraction [15]: significant increases
cytochrome c mitochondrial levels [15]: concomitant decreases
cytochrome c levels in the cytosolic fraction [16]: significant increases
cytochrome c mitochondrial levels [16]: concomitant decreases
ROS increase in the presence of NAC (MCF-7 cells [17]; MCF-7, 15 µM OI + NAC): no longer evident
ROS generation (MCF-7 cells [17]; MCF-7, 15 µM, vs control): significantly stimulated
ROS increase in the presence of NAC (HeLa cells [18]; 30 µM OI + NAC): no longer evident
ROS generation (HeLa cells [18]; 30 µM, vs control): significantly stimulated
